One test concerns Plasmodium berghei. Description: In vivo antimalarial activity against Plasmodium berghei infected mice (Mus musculus) at 640 mg/kg subcutaneous single dose. The format is functional.
Details: not given
As to `Cc1cc(C)c2nc(-c3ccc(Cl)cc3)cc(C(O)C3CCCCN3)c2c1` (stereo unspecified), the MfI amounted to 0.03.
Compound `OC(c1cc(-c2ccc(Cl)cc2)nc2c(C(F)(F)F)cccc12)C1CCCCN1` (stereo unspecified) displayed a MfI of 0.31.
The same measure, in the same setting: the result for `OC(c1cc(-c2ccccc2)nc2c1ccc1ccccc12)C1CCCCN1` (stereo unspecified) reads 0.1.
Still for that read-out and setting: the figure for `OC(c1cc(C(F)(F)F)nc2c1cc(Cl)c1ccccc12)C1CCCCN1` (stereo unspecified) is 0.12; for `OC(c1cc(Oc2ccc(Cl)c(Cl)c2)nc2c(Cl)cc(Cl)cc12)C1CCCCN1` (stereo unspecified) it is 0.87.
`OC(c1cc(-c2ccc(Cl)cc2)nc2c(Cl)cc(Cl)cc12)C1CCCCN1` (stereo unspecified) displayed a MfI of 1.29.
The same measure, in the same setting: the figure for `Cc1cc(C)c2nc(-c3ccc(F)cc3)cc(C(O)C3CCCCN3)c2c1` (stereo unspecified) is 0.03; for `COc1ccc(-c2cc(C(O)C3CCCCN3)c3cccc(C(F)(F)F)c3n2)cc1` (stereo unspecified) it is 0.07.
Compound `Cc1cccc2c(C(O)C3CCCCN3)cc(-c3ccc(Cl)cc3)nc12` (stereo unspecified) yielded a MfI of 0.07.
As to `OC(c1cc(-c2cccc(C(F)(F)F)c2)nc2c(C(F)(F)F)cccc12)C1CCCCN1` (stereo unspecified), the MfI is given as 1.2.
Still for that read-out and setting: the figure for `OC(c1cc(C(F)(F)F)nc2c(Cl)cccc12)C1CCCCN1` (stereo unspecified) is 0.03; for `OC(c1cc(C(F)(F)F)nc2c(Cl)cc(Cl)cc12)C1CCCCN1` (stereo unspecified) it is 0.17; for `Cc1cccc2c(C(O)C3CCCCN3)cc(-c3ccc(F)cc3)nc12` (stereo unspecified) it is 0.05.
For the compound `COc1cc(C(F)(F)F)c2nc(C(F)(F)F)cc(C(O)C3CCCCN3)c2c1` (stereo unspecified), the MfI is reported as 0.81.
On the same count and under the same terms, the figure for `Cc1cc(C)c2nc(Nc3ccc(Cl)cc3)cc(C(O)C3CCCCN3)c2c1` (stereo unspecified) is 0.03.
Still for that read-out and setting: the figure for `OC(c1cc(Oc2ccc(Cl)cc2)nc2c(Cl)cc(Cl)cc12)C1CCCCN1` (stereo unspecified) is 0.8; for `OC(c1cc(-c2ccccc2)nc2c(Cl)cccc12)C1CCCCN1` (stereo unspecified) it is 0.05.
On to `OC(c1cc(C(F)(F)F)nc2c1ccc1ccccc12)C1CCCCN1` (stereo unspecified), for which the MfI is given as 0.13.
On to `COc1ccc(-c2cc(C(O)C3CCCCN3)c3cc(C)cc(C)c3n2)cc1` (stereo unspecified), for which the MfI was determined as 0.03.
As to `Cc1cc(C)c2nc(Oc3ccc(Cl)cc3)cc(C(O)C3CCCCN3)c2c1` (stereo unspecified), the MfI came to 0.03.
On the same count and under the same terms, the result for `Cc1ccc(-c2cc(C(O)C3CCCCN3)c3cccc(C(F)(F)F)c3n2)cc1` (stereo unspecified) reads 0.09; that for `OC(c1cc(-c2ccccc2)nc2c(C(F)(F)F)cccc12)C1CCCCN1` (stereo unspecified), 0.11; that for `Cc1ccc(-c2cc(C(O)C3CCCCN3)c3cc(C)cc(C)c3n2)cc1` (stereo unspecified), 0.1.
Still for that read-out and setting: the figure for `OC(c1cc(-c2ccccc2)nc2c(Cl)cc(Cl)cc12)C1CCCCN1` (stereo unspecified) is 0.04.

Staying with this test, now noted: 640 mg/kg.
Regarding `OC(c1cc(C(F)(F)F)nc2c(C(F)(F)F)cccc12)C1CCCCN1` (stereo in doubt; 1a) [MEFLOQUINE], the MfI is listed as 1.
`OC(c1cc(C(F)(F)F)nc2c(C(F)(F)F)cccc12)C1CCCCN1` (stereo in doubt; 1d) [MEFLOQUINE] gave a MfI of 0.81.

A further test has as its system Plasmodium berghei. Description: In vivo antimalarial activity against Plasmodium berghei infected mice (Mus musculus) at 640 mg/kg subcutaneous single dose; NC=non-curative. The format is functional, organism-based.
Details: not given
Also noted: dose 640 mg/kg.
On to `Cc1cccc2c(C(O)C3CCCCN3)cc(-c3ccccc3)nc12` (stereo unspecified), for which the MfI result is given as “Noncurative dose”.
Same read-out and setting: the entry for `OC(c1ccnc2c(Cl)cccc12)C1CCCCN1` (stereo unspecified) is “Noncurative dose”.
The same measure, in the same setting: the result for `Cc1ccc(-c2cc(C(O)C3CCCCN3)c3cccc(C)c3n2)cc1` (stereo unspecified) reads “Noncurative dose”; that for `OC(c1ccnc2c(Cl)cc(Cl)cc12)C1CCCCN1` (stereo unspecified), “Noncurative dose”; that for `OC(c1cc(-c2ccc(Cl)cc2)nc2c1ccc1ccccc12)C1CCCCN1` (stereo unspecified), “Noncurative dose”.
`Cc1cc(C)c2nc3c(c(C(O)C4CCCCN4)c2c1)CCC3` (stereo unspecified): the MfI entry is “Noncurative dose”.
On the same count and under the same terms, the entry for `OC(c1ccnc2c(C(F)(F)F)cccc12)C1CCCCN1` (stereo unspecified) is “Noncurative dose”.
With `Cc1cc(C(O)C2CCCCN2)c2cc(Cl)cc(Cl)c2n1` (stereo unspecified), the MfI entry is listed as “Noncurative dose”.
On the same count and under the same terms, the result for `OC(c1cc(-c2ccc(Cl)cc2)nc2c(Cl)cccc12)C1CCCCN1` (stereo unspecified) reads “Noncurative dose”; that for `O=C(Nc1cccc(C(F)(F)F)c1)c1cc(C(O)C2CCCCN2)c2cccc(C(F)(F)F)c2n1` (stereo unspecified), “Noncurative dose”; that for `Cc1cc(C)c2nc(C(F)(F)F)cc(C(O)C3CCCCN3)c2c1` (stereo unspecified), “Noncurative dose”.
Turning to `Cc1cccc2c(C(O)C3CCCCN3)cc(C(F)(F)F)nc12` (stereo unspecified), the MfI result is listed as “Noncurative dose”.
The same measure, in the same setting: the result for `OC(c1cc(C(F)(F)F)nc2c(F)cccc12)C1CCCCN1` (stereo unspecified) reads “Noncurative dose”.
On to `NC(=O)c1cc(C(O)C2CCCCN2)c2cccc(C(F)(F)F)c2n1` (stereo unspecified), for which the MfI result is “Noncurative dose”.
Turning to `Cc1cc(C)c2nc(CC/C=C/c3ccc(Cl)cc3)cc(C(O)C3CCCCN3)c2c1` (stereo unspecified), the MfI result is “Noncurative dose”.

For the origin of these results see ChEMBL document CHEMBL1129401, “Molecular electronic properties of a series of 4-quinolinecarbinolamines define antimalarial activity profile” (1996).
